Experiment [1] addresses Hen1 in the Pnkp1–Rnl–Hen1 heterohexamer (CgiHen1) (Capnocytophaga gingivalis, UniProt Z9ZGS5E134). Briefly: X-ray crystal structure, […] Å, co-purified ligand. It counts as binding. Conditions: methyltransferase active site of Hen1; retained from E. coli expression, not added; weak density, low occupancy.
For experiment [2], the target named is Capnocytophaga gingivalis Pnkp1 (Capnocytophaga gingivalis). Briefly: SEC; purified proteins analysed singly, or two proteins combined in equimolar and incubated at 4 °C for an hour before size-exclusion chromatography.

The text below walks through data of article PMC4411300, “Reconstitution and structure of a bacterial Pnkp1–Rnl–Hen1 RNA repair complex” (Nature Communications, 2015).

With `Nc1ncnc2c1ncn2[C@@H]1O[C@H](CSCC[C@H](N)C(=O)O)[C@@H](O)[C@H]1O` [SAH], the “X-ray crystal structure, 3.4 Å, co-purified ligand” value in experiment [1] is reported as “SAH was modelled in the methyltransferase active site of Hen1-b”.
For orientation: stoichiometry N means a count of units in the complex or per binding partner. With “Capnocytophaga gingivalis Pnkp1 (enzyme)”, in experiment [2], the stoichiometry N came to 2.
